Experiments:
[1] = Comparative equilibrium solubility study of micronized and non-micronized Compound 1; assay type: physicochemical; conditions: for Concentration of Compound 1 in 0.1N HCl + 0.5% SLS: pH 1; for Concentration of Compound 1 in PBS: pH 7.4
Protocol: Objective: The purpose of this study was to evaluate the solubility of micronized and non-micronized Compound 1. The solubility study was conducted in two representative media in pH 1 (0.1 N HCl with 0.5% sodium lauryl sulfate) and in pH 7.4 (0.1M phosphate buffered saline). The experiment further compared the initial rate of dissolution and equilibrium solubilities of micronized and non-micronized Compound 1 over a period of time.
Solubility measurement procedure comprised the steps of: 1) weighing and mixing approximately 100 mg of micronized Compound 1 and 100 mL of 0.1N HCl with 0.5% SLS into amber jar 1; 2) weighing and mixing approximately 100 mg of micronized Compound 1 and 100 mL of PBS into amber jar 2; 3) weighing and mixing approximately 100 mg of non-micronized Compound 1 and 100 mL of 0.1N HCl with 0.5% SLS into amber jar 3; 4) weighing and mixing approximately 100 mg of non-micronized Compound 1 and 100 mL of PBS into amber jar 4; 5) mixing all samples in their respective amber jars using a multi purpose rotator for 2 hours; 4) sampling at 5 minutes, 10 minutes, 30 minutes, 60 minutes, 90 minutes, 120 minutes; 5) filtering the samples and 6) analyzing the filtrates using HPLC. For each time point, 10 mL of sample was drawn using a 10 mL syringe with a needle attached filter and using a syringe-top 0.45 μm PTFE syringe filter. The first 9 mL of the samples collected were put back into the original amber jar and then remaining 1 mL was transferred to HPLC vial for analysis.

[2] = Quantitative whole body autoradiography, Long Evans rats; assay type: in vivo; conditions: 50 mg/kg single oral
Protocol: (§1) Two studies were performed to evaluate the concentrations of Compound 1/metabolites in various tissues, including the eyes, following a single dose administration of radiolabeled Compound 1 (^14C-3-[5-(2-fluoro-phenyl)-[1,2,4]oxadiazol-3-yl]benzoic acid) to Sprague Dawley and Long Evans rats.
Long Evans rats: In a quantitative whole body autoradiography (QWBA) study, 8 male Long Evans rats (partially pigmented) obtained from Harlan were administered a single oral gavage dose of 50 mg/kg ^14C-Compound 1.
Animals were individually housed and certified rodent diet and water were provided ad libitum. Animals were acclimated for 3 days prior to dose administration. Environmental controls for the animal room were set to maintain a temperature of 18 to 26° C., a relative humidity of 50±20%, and a 12-hour light/12-hour dark cycle. As necessary, the 12-hour dark cycle was interrupted to accommodate study procedures. Animals were fasted overnight through 4 hours postdose on the day of dosing. At dosing, the animals weighed 160 to 178 g and were approximately 7 weeks of age. One animal/time point was sacrificed via exsanguination (cardiac puncture) under isoflurane anesthesia at 0.5, 1, 2, 4, 8, 24, 72, and 168 hours postdose.

[3] = Quantitative whole body autoradiography, Sprague Dawley rats; assay type: in vivo; conditions: 1 hr, 50 mg/kg single oral
Protocol: as §1
Sprague Dawley rats: As part of a quantitative whole body autoradiography (QWBA) study, 4 male and 4 female Sprague Dawley rats (albino) obtained from Charles River were administered a single oral gavage dose of 50 mg/kg ^14C-3-[5-(2-fluoro-phenyl)-[1,2,4]oxadiazol-3-yl]benzoic acid.
Animals were individually housed and certified rodent diet and water were provided ad libitum. Animals were acclimated for 8 days prior to dose administration. Environmental controls for the animal room were set to maintain a temperature of 18 to 26° C., a relative humidity of 50±20%, and a 12-hour light/12-hour dark cycle. The 12-hour dark cycle may have been interrupted to accommodate study procedures. Animals were fasted overnight through 4 hours postdose on the day of dosing. At dosing, the animals weighed 204 to 260 g and were approximately 9 to 11 weeks of age. […] The concentrations of ^14C-3-[5-(2-fluoro-phenyl)-[1,2,4]oxadiazol-3-yl]benzoic acid in the eye and related tissues are shown in the following table.

With `O=C(O)c1cccc(-c2noc(-c3ccccc3F)n2)c1` [Micronized Compound 1] the “Concentration of Compound 1 in 0.1N HCl + 0.5% SLS” value ([1]; 5 minutes) was 6.85 µg/mL, the “Concentration of Compound 1 in 0.1N HCl + 0.5% SLS” value ([1]; 10 minutes) was 6.81 µg/mL and the “Concentration of Compound 1 in 0.1N HCl + 0.5% SLS” value ([1]; 30 minutes) was 6.83 µg/mL. For the same molecule, the “Concentration of Compound 1 in 0.1N HCl + 0.5% SLS” value ([1]; 60 minutes) was 7.04 µg/mL, the “Concentration of Compound 1 in 0.1N HCl + 0.5% SLS” value ([1]; 90 minutes) was 6.88 µg/mL and the “Concentration of Compound 1 in 0.1N HCl + 0.5% SLS” value ([1]; 120 minutes) was 7.18 µg/mL. The “Concentration of Compound 1 in PBS” value ([1]; 5 minutes) was 189.13 µg/mL, the “Concentration of Compound 1 in PBS” value ([1]; 10 minutes) was 191.45 µg/mL and the “Concentration of Compound 1 in PBS” value ([1]; 30 minutes) was 197.59 µg/mL. For the same molecule, the “Concentration of Compound 1 in PBS” value ([1]; 60 minutes) was 199.95 µg/mL, the “Concentration of Compound 1 in PBS” value ([1]; 90 minutes) was 200.29 µg/mL and the “Concentration of Compound 1 in PBS” value ([1]; 120 minutes) was 203.08 µg/mL.

In the case of `O=C(O)c1cccc(-c2noc(-c3ccccc3F)n2)c1` [Non-Micronized Compound 1], the “Concentration of Compound 1 in 0.1N HCl + 0.5% SLS” value ([1]; 5 minutes) was 6.24 µg/mL, the “Concentration of Compound 1 in 0.1N HCl + 0.5% SLS” value ([1]; 10 minutes) was 6.38 µg/mL and the “Concentration of Compound 1 in 0.1N HCl + 0.5% SLS” value ([1]; 30 minutes) was 6.87 µg/mL. The “Concentration of Compound 1 in 0.1N HCl + 0.5% SLS” value ([1]; 60 minutes) was 6.99 µg/mL, the “Concentration of Compound 1 in 0.1N HCl + 0.5% SLS” value ([1]; 90 minutes) was 6.97 µg/mL and the “Concentration of Compound 1 in 0.1N HCl + 0.5% SLS” value ([1]; 120 minutes) was 7.04 µg/mL. The “Concentration of Compound 1 in PBS” value ([1]; 5 minutes) was 141.89 µg/mL, the “Concentration of Compound 1 in PBS” value ([1]; 10 minutes) was 152.59 µg/mL and the “Concentration of Compound 1 in PBS” value ([1]; 30 minutes) was 176.92 µg/mL. For the same molecule, the “Concentration of Compound 1 in PBS” value ([1]; 60 minutes) was 185.18 µg/mL, the “Concentration of Compound 1 in PBS” value ([1]; 90 minutes) was 194.06 µg/mL and the “Concentration of Compound 1 in PBS” value ([1]; 120 minutes) was 196.54 µg/mL.

Molecule “^14C-3-[5-(2-fluoro-phenyl)-[1,2,4]oxadiazol-3-yl]benzoic acid” has a Concentrations of radioactivity ([2]; Exorbital lacrimal gland, 0.5 hr) of 28.0 µg/g, a Concentrations of radioactivity ([2]; Exorbital lacrimal gland, 1 hr) of 7.59 µg/g and a Concentrations of radioactivity ([2]; Exorbital lacrimal gland, 2 hr) of 22.4 µg/g. For the same molecule, the Concentrations of radioactivity ([2]; Exorbital lacrimal gland, 4 hr) was 10.2 µg/g, the Concentrations of radioactivity ([2]; Exorbital lacrimal gland, 8 hr) was 8.09 µg/g and the Concentrations of radioactivity ([2]; Exorbital lacrimal gland, 24 hr) was “BLQ (BLQ = below the limit of quantitation (<0.457 μg equivalents ^14C-3-[5-(2-fluoro-phenyl)-[1,2,4]oxadiazol-3-yl]benzoic acid))”. The Concentrations of radioactivity ([2]; Exorbital lacrimal gland, 72 hr) was “BLQ (BLQ = below the limit of quantitation (<0.457 μg equivalents ^14C-3-[5-(2-fluoro-phenyl)-[1,2,4]oxadiazol-3-yl]benzoic acid))”, the Concentrations of radioactivity ([2]; Eye (lens), 0.5 hr) was “BLQ (BLQ = below the limit of quantitation (<0.457 μg equivalents ^14C-3-[5-(2-fluoro-phenyl)-[1,2,4]oxadiazol-3-yl]benzoic acid))” and the Concentrations of radioactivity ([2]; Eye (lens), 1 hr) was “BLQ (BLQ = below the limit of quantitation (<0.457 μg equivalents ^14C-3-[5-(2-fluoro-phenyl)-[1,2,4]oxadiazol-3-yl]benzoic acid))”. For the same molecule, the Concentrations of radioactivity ([2]; Eye (lens), 2 hr) was “BLQ (BLQ = below the limit of quantitation (<0.457 μg equivalents ^14C-3-[5-(2-fluoro-phenyl)-[1,2,4]oxadiazol-3-yl]benzoic acid))”, the Concentrations of radioactivity ([2]; Eye (lens), 4 hr) was “BLQ (BLQ = below the limit of quantitation (<0.457 μg equivalents ^14C-3-[5-(2-fluoro-phenyl)-[1,2,4]oxadiazol-3-yl]benzoic acid))” and the Concentrations of radioactivity ([2]; Eye (lens), 8 hr) was “BLQ (BLQ = below the limit of quantitation (<0.457 μg equivalents ^14C-3-[5-(2-fluoro-phenyl)-[1,2,4]oxadiazol-3-yl]benzoic acid))”. For the same molecule, the Concentrations of radioactivity ([2]; Eye (lens), 24 hr) was “BLQ (BLQ = below the limit of quantitation (<0.457 μg equivalents ^14C-3-[5-(2-fluoro-phenyl)-[1,2,4]oxadiazol-3-yl]benzoic acid))”, the Concentrations of radioactivity ([2]; Eye, 0.5 hr) was 4.59 µg/g and the Concentrations of radioactivity ([2]; Eye, 1 hr) was 1.78 µg/g. For the same molecule, the Concentrations of radioactivity ([2]; Eye, 2 hr) was 3.62 µg/g, the Concentrations of radioactivity ([2]; Eye, 4 hr) was 2.69 µg/g and the Concentrations of radioactivity ([2]; Eye, 8 hr) was 2.08 µg/g. For the same molecule, the Concentrations of radioactivity ([2]; Eye, 24 hr) was “BLQ (BLQ = below the limit of quantitation (<0.457 μg equivalents ^14C-3-[5-(2-fluoro-phenyl)-[1,2,4]oxadiazol-3-yl]benzoic acid))”, the Concentrations of radioactivity ([2]; Hardenian gland, 0.5 hr) was 46.8 µg/g and the Concentrations of radioactivity ([2]; Hardenian gland, 1 hr) was 16.0 µg/g. The Concentrations of radioactivity ([2]; Hardenian gland, 2 hr) was 38.2 µg/g, the Concentrations of radioactivity ([2]; Hardenian gland, 4 hr) was 18.1 µg/g and the Concentrations of radioactivity ([2]; Hardenian gland, 8 hr) was 13.0 µg/g. It also gave a Concentrations of radioactivity ([2]; Hardenian gland, 24 hr) of 1.59 µg/g, a Concentrations of radioactivity ([2]; Intra-orbital lacrimal gland, 0.5 hr) of 28.8 µg/g and a Concentrations of radioactivity ([2]; Intra-orbital lacrimal gland, 1 hr) of 10.3 µg/g. The Concentrations of radioactivity ([2]; Intra-orbital lacrimal gland, 2 hr) was 25.2 µg/g, the Concentrations of radioactivity ([2]; Intra-orbital lacrimal gland, 4 hr) was 11.7 µg/g and the Concentrations of radioactivity ([2]; Intra-orbital lacrimal gland, 8 hr) was 10.3 µg/g. The Concentrations of radioactivity ([2]; Intra-orbital lacrimal gland, 24 hr) was “BLQ (BLQ = below the limit of quantitation (<0.457 μg equivalents ^14C-3-[5-(2-fluoro-phenyl)-[1,2,4]oxadiazol-3-yl]benzoic acid))”, the Concentrations of radioactivity ([2]; Uveal tract, 0.5 hr) was 20.6 µg/g and the Concentrations of radioactivity ([2]; Uveal tract, 1 hr) was 10.4 µg/g. The Concentrations of radioactivity ([2]; Uveal tract, 2 hr) was 18.1 µg/g, the Concentrations of radioactivity ([2]; Uveal tract, 4 hr) was 6.09 µg/g and the Concentrations of radioactivity ([2]; Uveal tract, 8 hr) was 11.6 µg/g. The Concentrations of radioactivity ([2]; Uveal tract, 24 hr) was “BLQ (BLQ = below the limit of quantitation (<0.457 μg equivalents ^14C-3-[5-(2-fluoro-phenyl)-[1,2,4]oxadiazol-3-yl]benzoic acid))”, the Concentrations of radioactivity ([3]; Female, Exorbital lacrimal gland) was 10.3 µg/g and the Concentrations of radioactivity ([3]; Female, Harderian gland) was 18.7 µg/g. The Concentrations of radioactivity ([3]; Female, Intra-orbital lacrimal gland) was 10.2 µg/g, the Concentrations of radioactivity ([3]; Female, matrix cell blank (first line)) was 1.41 µg/g and the Concentrations of radioactivity ([3]; Male, Exorbital lacrimal gland) was 21.1 µg/g. It also gave a Concentrations of radioactivity ([3]; Male, Eye) of 3.39 µg/g, a Concentrations of radioactivity ([3]; Male, Harderian gland) of 21.6 µg/g and a Concentrations of radioactivity ([3]; Male, Intra-orbital lacrimal gland) of 21.8 µg/g.
